Numbers after ± are expanded uncertainties. Each block holds one molecule with its values, some of them ahead of it.
Details: Liquid

- vapor or sublimation pressure (353.7 K, Ebulliometric method (Recirculating still)): 101.3 ± 1 kPa
SMILES: C1CCCCC1 [cyclohexane]

SMILES: Cc1ccccc1 [toluene]
- vapor or sublimation pressure (383.4 K, Closed cell (Static) method): 101.3 ± 1 kPa
- vapor or sublimation pressure (383.8 K, Closed cell (Static) method): 101.3 ± 1 kPa

SMILES: Cc1cccc(C)c1 [1,3-dimethylbenzene]
- vapor or sublimation pressure (412 K, Ebulliometric method (Recirculating still)): 101.3 ± 1 kPa

- vapor or sublimation pressure (353.3 K, Closed cell (Static) method): 101.3 ± 1 kPa
SMILES: c1ccccc1 [benzene]

SMILES: Cc1ccc(C)cc1 [1,4-dimethylbenzene]
- vapor or sublimation pressure (411.4 K, Ebulliometric method (Recirculating still)): 101.3 ± 1 kPa

- vapor or sublimation pressure (423.8 K, Ebulliometric method (Recirculating still)): 101.3 ± 1 kPa
SMILES: CCCCCCCCC [nonane]

— the NIST ThermoML archive (doi:10.1016/j.fluid.2011.10.009)
